Measured values published in patent US8822440B2, “Inhibiting cyclin D polypeptides” (Mayo Foundation for Medical Education and Research, priority 2006, dated 2014).
Entries after “also recorded” stand apart in the source; their conditions may differ.

Experiments:
caspase 9 = assay: Immunoblot of caspase 9 cleavage in HMCL; assay type: cell-based, human; details: A-134974 2 μM, kinetin riboside 10 μM
Protocol: Immunoblotting. Cytosolic extracts were prepared from HMCL or purified patient CD138^+ myeloma cells following exposure to kinetin riboside. Cells were washed with cold PBS, resuspended in cold RIPA buffer (5×10^6 cells/100 μL) containing fresh protease and phosphatase inhibitors (Santa Cruz Biotechnology, Santa Cruz, Calif.) and incubated on ice for 30 minutes with gentle mixing. The supernatant was repossessed following high speed centrifugation, and protein concentrations were determined by the Bradford assay. Immunoblot assays were performed as described elsewhere (Krajewski et al., Anal. Biochem., 236:221-228 (1996)). Briefly, equal amounts of protein were separated by SDS-PAGE and transferred to a PVDF nitrocellulose membrane using a semi-dry apparatus. Membranes were blocked using 5% skim milk in Tris buffered saline and probed with monoclonal mouse anti-cyclin D1 (DCS-6, Biosource, Camarillo, Calif.), polyclonal rabbit anti-cyclin D2 (#2924, Cell Signalling Technology), monoclonal mouse anti-cyclin D3 (DCS-22, BioSource), polyclonal rabbit anti-c-Maf (M-153, Santa Cruz), polyclonal rabbit anti-Cleaved Caspase 9 (Asp315) (Cell Signaling Technology), monoclonal mouse anti-β-actin (Cell Signaling Technology) and/or monoclonal anti-a-tubulin (B-7)(Santa Cruz Biotechnology, Santa Cruz, Calif.). […]

CCND2 promoter = assay: CCND2 promoter-luciferase transactivation assay in NIH3T3 cells with or without c-maf; assay type: cell-based, mouse; details: for effect on CCND2-luc expression, agent alone / effect on kinetin riboside-induced suppression of CCND2: NIH3T3 reporter cells; for effect on CCND2-luc expression, agent alone: 5 μM; for effect on CCND2-luc expression, agent alone / identified as putative inhibitor of CCND2 transactivation (screen hit): 16 hours; for effect on kinetin riboside-induced suppression of CCND2: with kinetin riboside; for identified as putative inhibitor of CCND2 transactivation (screen hit): ~5 μM, hit = 50% or more reduction in luciferase relative to cell viability
Protocol: Using this assay, Lopac (n=1280), Prestwick (n=1120), and Spectrum (n=2000) libraries of drugs and natural compounds were screened. In a parallel MTS assay, the effect of each compound on 3T3 viability was determined, allowing exclusion of compounds that caused secondary suppression of CCND2 due to non-specific cytotoxicity. […] These included monensin, patulin, β-lapachone, camptothecin, dihydrogambogic acid, gentian violet, thapsigargin, brefeldin A, pristimerin, and kinetin riboside.
Full-length c-maf cDNA was subcloned into an IRES-GFP MIEV retroviral vector and introduced into NIH3T3 cells by infection. Stable clones expressing GFP and c-maf were selected by flow cytometry and immunoblotting, respectively. The promoter of human cyclin D2 (−894 to −4; Brooks et al., J. Biol. Chem., 271, 9090-9 (1996)), containing c-maf responsive element sequence (MARE), was cloned from DNA from HeLa cells and inserted into the pGLbasic firefly luciferase vector (Promega, Madison, Wis.) immediately upstream of the luciferase gene. This construct was co-transfected with pcDNA3 (containing a neomycin resistance gene) into both NIH3T3 wild type cells and NIH3T3 cells stably over-expressing c-maf-IRES-GFP. Cells stably expressing c-maf, GFP, and luciferase were selected.
(§1) NIH3T3 cells stably expressing c-maf and the CCND2 promoter driving luciferase (13,000 cells per well) were plated in 96-well plates by a Biomek FX liquid handler (Beckman, Fullerton, Calif.). After the cells had adhered, they were treated with aliquots of molecules from LOPAC (Sigma, St. Louis, Mo.), Prestwick (Prestwick Chemical Inc, Illkirch, France) or Spectrum (Microsource Discovery Systems, Gaylordsville, Conn.) libraries of off-patent drugs and chemicals at a final concentration of ˜5 μM and <0.1% DMSO. Cells were incubated with compounds at 37° C. for 16 hours.
Luciferase assay. Luciferase activity was assessed according to the manufacturer's instructions (Promega, Madison, Wis.). Briefly, the cell culture medium was removed using an EMBLA plate washer (Molecular Devices, X) and Glo Lysis buffer (Promega) was added by robot. After a 10-minute incubation, an equal volume of Bright-Glo Luciferase substrate (Promega) was added, and luminescence signal was detected with a 96-well Luminoskan luminescence plate reader (Thermo Labsystem, Waltham, Mass.) using a 5 second integration.
Studies of kinetin riboside using 3T3-D2-luc cells. To examine CCND2 suppression induced by kinetin riboside, the reporter cells were exposed to kinetin riboside in combination with other drugs (all purchased from Sigma, St. Loius, Mo.) that influence CCND2 transcription or inhibit nucleoside transport or phosphorylation. NIH3T3 cells expressing the CCND2 promoter driving luciferase were incubated with kinetin riboside or vehicle control +/− forskolin, 4-(3-butoxy-4-methoxybenzyl)imidazolidin-2-one (BMBI), cantharadin, S-(4-Nitrobenzyl)-6-thioinosine (NBTI), or A-134974, as specified at 5 μM concentration for 16 hours at 37° C. […] Forskolin is a cell-permeable diterpenoid that activates adenylate cyclase resulting in increased cAMP concentration. BMBI (Sigma B8279) is an inhibitor of cAMP phosphodiesterase that also causes accumulation of cAMP. Cantharadin (C7632) is an inhibitor of protein phosphatase 2A and, from the library screen, mediates induction of CCND2. NBTI (Sigma N2255) is a potent adenosine uptake inhibitor, and A-134974 (Sigma A2846) is a selective inhibitor of adenosine kinase.
(§2) In an optimized automated assay, NIH3T3 cells over-expressing c-maf and the human cyclin D2 promoter driving luc were plated in 96-well plates by robot and following adhesion were treated for 16 hours with compounds at a final concentration of ˜5 μM and <0.1% DMSO. As a control, cells were treated with buffer alone. […] Thus, each compound from the library was tested in at least two assays—luciferase for CCND2 activity and MTS for viability. The coefficient of variance (CV) of the assay was <10%.

[1] = tested on: cyclin D1, cyclin D2, cyclin D3; assay: Immunoblot of cyclin D proteins in HMCL; assay type: cell-based, human; details: A-134974 2 μM, kinetin riboside 10 μM
Protocol: Immunoblotting. Cytosolic extracts were prepared from HMCL or purified patient CD138^+ myeloma cells following exposure to kinetin riboside. Cells were washed with cold PBS, resuspended in cold RIPA buffer (5×10^6 cells/100 μL) containing fresh protease and phosphatase inhibitors (Santa Cruz Biotechnology, Santa Cruz, Calif.) and incubated on ice for 30 minutes with gentle mixing. The supernatant was repossessed following high speed centrifugation, and protein concentrations were determined by the Bradford assay. Immunoblot assays were performed as described elsewhere (Krajewski et al., Anal. Biochem., 236:221-228 (1996)). Briefly, equal amounts of protein were separated by SDS-PAGE and transferred to a PVDF nitrocellulose membrane using a semi-dry apparatus. Membranes were blocked using 5% skim milk in Tris buffered saline and probed with monoclonal mouse anti-cyclin D1 (DCS-6, Biosource, Camarillo, Calif.), polyclonal rabbit anti-cyclin D2 (#2924, Cell Signalling Technology), monoclonal mouse anti-cyclin D3 (DCS-22, BioSource), polyclonal rabbit anti-c-Maf (M-153, Santa Cruz), polyclonal rabbit anti-Cleaved Caspase 9 (Asp315) (Cell Signaling Technology), monoclonal mouse anti-β-actin (Cell Signaling Technology) and/or monoclonal anti-a-tubulin (B-7)(Santa Cruz Biotechnology, Santa Cruz, Calif.). Membrane proteins were visualized using HRP-conjugated species-specific secondary antibodies (Cell Signaling Technology) and enhanced chemiluminescence (Pierce, Rockford, Ill.).

NIH3T3 cells = assay type: cell-based, mouse; details: MTS
Protocol: as §1
(§3) Viability assay. The effects of screened compounds on cell viability was assessed by 3-(4,5-dimethyl[…])-5-(3-carboxymethoxyphenyl)-2-(4-sulfophenyl)-2-H-tetrazolium (MTS) assay according to the manufacture's instructions (Progmega, Madison, Wis.). MTS reagent (20 μL/well in 96 well plates) was added to cells, and these were then incubated at 37° C. for 4 hours. Absorbance at 490 nm was determined using a 96-well plate reader.
as §2

[2] = tested on: human myeloma cell lines (HMCL); assay: HMCL viability / cytotoxicity (MTT, MTS); assay type: cell-based
Protocol: Subsequent validation studies using selected compounds in human myeloma cell lines (HMCL) confirmed successful suppression of both cyclin D2 and D1 polypeptides. Each of these compounds was then shown to be cytotoxic to a genetically diverse and standardized panel of 14 HMCL in MTT assays: monensin (10-760 nM), camptothecin (5-700 nM), dihydrogambogic acid (250-800 nM), pristimerin (150-500 nM), and kinetin riboside (2.5-20 μM). Cell cycle analysis confirmed induction of G0/G1 phase arrest for most compounds, consistent with cyclin D inhibition.
as §3

HMCL = assay: Cell cycle profiling of HMCL by flow cytometry; assay type: cell-based, human; details: Example 1, HMCL
Protocol: Cell cycle profiling. HMCL were incubated with drug or vehicle as indicated, washed and resuspended in 1 mL PBS. Ice cold ethanol was added dropwise to 75% with regular mixing, and suspensions were incubated at −20° C. for 1 hour. Cells were washed again with PBS and resuspended in 0.1 mL RNAse A (100 μg/mL) at room temperature for 5-10 minutes. Propidium iodide (200 μL×100 μg/mL) was added immediately prior to analysis by flow cytometry. Cellular aggregates were excluded using CellQuest Doublet Discriminator Module, and cell cycle profile was determined using ModFit LT Mac 3.1 SP2 (Verity Software House, TopSham, Me.).

CD138+ myeloma cells = assay: Unsorted myeloma patient bone marrow, flow cytometry: CD138+ myeloma cells; assay type: cell-based, human; details: unsorted myeloma patient bone marrow samples
Protocol: (§4) Flow cytometry. HMCL were treated as indicated and then washed in cold phosphate-buffered saline (PBS) and resuspended in buffer containing AnnexinV-FITC and propidium iodide (BD Biosciences, San Jose, Calif.) for 15 minutes at room temperature. Cells (10^5) were subsequently diluted and analyzed immediately by flow cytometry (FACScan, BD Biosciences, San Jose, Calif.) using CellQuest software. Patient bone marrow specimens were prepared and analyzed in a similar fashion using AnnexinV-FITC and anti-CD138-PE (BD Biosciences, San Jose, Calif.).
(§5) As mouse embryos that lack any D-cyclins eventually die from hematopoietic failure (Kozar et al., Cell, 118, 477-91 (2004)), the bone marrow might be predicted to be one of the most sensitive non-malignant tissue to be affected by drugs targeting cyclin D expression. Unsorted bone marrow samples from myeloma patients were treated with kinetin riboside to assess the relative cytotoxicity of this drug on malignant versus non-malignant marrow cells. Bone marrow samples were first processed to remove non-nucleated red cells and were then treated for 48 hours with kinetin riboside (5 μM).

[3] = tested on: CD138− hematopoietic cells; assay: Unsorted myeloma patient bone marrow, flow cytometry: CD138- non-malignant cells; assay type: cell-based; details: for toxicity for normal / non-malignant patient hematopoietic cells: patient bone marrow
Protocol: as §4, §5

Nc1ncnc2c1c(I)cn2[C@@H]1C[C@H](N)[C@@H](O)[C@H]1O [A-134974]
effect on kinetin riboside-induced caspase 9 cleavage in HMCL (caspase 9): prevents | effect on CCND2-luc expression, agent alone (CCND2 promoter): minimal enhancement | effect on kinetin riboside-induced suppression of CCND2 (CCND2 promoter): completely inhibits | effect on cyclin D1 and D2 levels in kinetin riboside-treated HMCL [1]: partially rescues | effect on NIH3T3 viability (NIH3T3 cells): no effect on 3T3 cell viability

CCCCOc1cc(CC2CNC(=O)N2)ccc1OC (stereo not shown) [BMBI, 4-(3-butoxy-4-methoxybenzyl)imidazolidin-2-one]
effect on CCND2-luc expression, agent alone (CCND2 promoter): CCND2 transactivation

O=[N+]([O-])c1ccc(CSc2ncnc3c2ncn3[C@@H]2O[C@H](CO)[C@@H](O)[C@H]2O)cc1 [NBTI, S-(4-Nitrobenzyl)-6-thioinosine]
effect on kinetin riboside-induced suppression of CCND2 (CCND2 promoter): does not block kinetin riboside function

CC[C@@]1(O)C[C@H](O[C@H]2C[C@H](N(C)C)[C@H](O)[C@H](C)O2)c2c(cc3c(c2O)C(=O)c2c(O)cccc2C3=O)[C@H]1C(=O)OC [aklavine]
identified as putative inhibitor of CCND2 transactivation (screen hit) (CCND2 promoter): putative suppressors of CCND2 | effect on NIH3T3 viability (NIH3T3 cells): excess NIH3T3 cytoxicity

C[C@H]1CCC/C=C/[C@@H]2C[C@H](O)C[C@H]2[C@H](O)/C=C/C(=O)O1 [brefeldin A]
identified as putative inhibitor of CCND2 transactivation (screen hit) (CCND2 promoter): putative CCND2 inhibitors

CC[C@@]1(O)C(=O)OCc2c1cc1n(c2=O)Cc2cc3ccccc3nc2-1 [camptothecin, reference compound]
cytotoxic concentration across panel of 14 HMCL ([2]; MTT assays, 14 HMCL): 5 to 700 nM | identified as putative inhibitor of CCND2 transactivation (screen hit) (CCND2 promoter): putative CCND2 inhibitors; also recorded: putative suppressors of CCND2 | cell cycle arrest phase (HMCL): S-phase arrest

C[C@@]12C(=O)OC(=O)[C@]1(C)[C@H]1CC[C@@H]2O1 [cantharadin]
effect on CCND2-luc expression, agent alone (CCND2 promoter): marked transactivation

CC(C)=CCCC1(C)C=Cc2c(O)c3c(c(CC=C(C)C)c2O1)OC12C(=CC4CC1C(C)(C)OC2(C/C=C(/C)C(=O)O)C4O)C3=O (stereo not shown) [dihydrogambogic acid]
cytotoxic concentration across panel of 14 HMCL ([2]; human): 250 to 800 nM | suppression of CCND2 promoter in absence or presence of c-maf (CCND2 promoter; NIH3T3 CCND2-luc with or without c-maf): c-maf independent specific suppression of the CCND2 promoter | identified as putative inhibitor of CCND2 transactivation (screen hit) (CCND2 promoter): putative CCND2 inhibitors; also recorded: putative suppressors of CCND2 | activity against CD138+ myeloma cells compared with non malignant hematopoietic cells (CD138+ myeloma cells): selective activity

CN(C)c1ccc(C(=C2C=CC(=[N+](C)C)C=C2)c2ccc(N(C)C)cc2)cc1 [gentian violet]
identified as putative inhibitor of CCND2 transactivation (screen hit) (CCND2 promoter): putative CCND2 inhibitors; also recorded: putative suppressors of CCND2

N[C@@H](Cc1ccc(N(CCCl)CCCl)cc1)C(=O)O [melphalan, reference compound]
effect on non-malignant CD138− marrow cells ([3]; 48 hours, kinetin riboside 5 μM): killed proportionately more healthy CD138− marrow cells than malignant myeloma cells

CC[C@@]1([C@@H]2O[C@@H]([C@H]3O[C@@](O)(CO)[C@H](C)C[C@@H]3C)C[C@@H]2C)CC[C@H]([C@]2(C)CC[C@]3(C[C@H](O)[C@@H](C)[C@@H]([C@@H](C)[C@@H](OC)[C@H](C)C(=O)O)O3)O2)O1 [monensin, reference compound]
cytotoxic concentration across panel of 14 HMCL ([2]; human): 10 to 760 nM | identified as putative inhibitor of CCND2 transactivation (screen hit) (CCND2 promoter): putative CCND2 inhibitors; also recorded: putative suppressors of CCND2 | toxicity for normal / non-malignant patient hematopoietic cells [3]: almost equal toxicity for normal cells | toxicity for normal / non-malignant patient hematopoietic cells ([3]; listed as Monensin): excessive non-specific toxicity

N=C1C=CC(=C(c2ccc(N)cc2)c2ccc(N)cc2)C=C1 [pararosaniline pamoate]
identified as putative inhibitor of CCND2 transactivation (screen hit) (CCND2 promoter): putative suppressors of CCND2

C/C=C(/C)C(=O)O[C@H]1C(C)=C2[C@H]([C@@H]1OC(=O)CCCCCCC)[C@@](C)(OC(C)=O)C[C@H](OC(=O)CCC)[C@@]1(O)[C@H]2OC(=O)[C@@]1(C)O [thapsigargin]
identified as putative inhibitor of CCND2 transactivation (screen hit) (CCND2 promoter): putative CCND2 inhibitors

CC1(C)CCC2=C(O1)c1ccccc1C(=O)C2=O [β-lapachone, reference compound]
identified as putative inhibitor of CCND2 transactivation (screen hit) (CCND2 promoter): putative CCND2 inhibitors | cell cycle arrest phase (HMCL): S-phase arrest
